The target in one test is T1, human Nav1.7 (Homo sapiens, UniProt Q15858).
T1 construct: expressed in transfected cells; host or cells: CHO
Put plainly: FRET assay (EFS, FDSS) on CHO cells expressing human NaV1.7 channels. The format is cell-based. Conditions: FRET assay, CHO cells expressing human NaV1.7; read-out: IC50 against Nav1.7. How it is done:
This screen was used to determine the effects of compounds on human NaV1.3, human Nav1.7, and human Nav1.5 channels, utilising electrical field stimulation (EFS) system in 96-well plate format on FDSS (Hamamatsu Photonics) platform. The change of membrane potential was monitored with FRET dye pair, oxonol (DiSBAC2(3)) and coumarin (CC2-DMPE).
CHO cells expressing human NaV1.7 channels were grown in T225 flasks, in a 5% CO2 humidified incubator to about 80% confluence. Media composition consisted of HAM/F12 with Glutamax I, 10% FCS, 100 units/ml Penicillin and 100 microgram/ml Hygromycin.
Protocol: • Seeded each cell lines (1×10^5 cells/well) into poly-D-lysine coated 96-well plates prior to experimentation. • Incubated at 37° C. in 5% CO2 for 24 hours. • Washed each well with assay buffer (140 mM NaCl, 4.5 mM KCl, 10 mM D-Glucose, 2 mM CaCl2, 1 mM MgCl2, 10 mM HEPES, pH 7.4 adjusted with NaOH) twice. • Added 1st loading solution containing 10 microM CC2-DMPE and 0.06% Pluronic F-127 in assay buffer. • Incubated the plate at room temperature in dark for 1 hour. • Removed 1st loading solution and added 2nd loading solution containing 15 microM DiSBAC2(3), 0.555 mM VABSC-1 and 0.004% Pluronic F-127 in assay buffer. • Placed the plate under the dark at room temperature for 25 minutes. • Added compound solutions into the assay plate. • Set the assay plate in FDSS and placed an EFS device on the plate. • Measured EFS-induced fluorescent response by FDSS.
The data were analyzed and reported as normalized ratios of intensities measured at […]. The process of calculating these ratios was performed as follows:
[formula] This analysis was performed using a computerized specific program designed for FDSS generated data. Fluorescence ratio values were plotted using XLfit to determine an IC50 value for each compound.

The target of the next test is T2, human NaV1.3 (Homo sapiens, UniProt Q9NY46).
T2 construct: expressed in transfected cells; host or cells: HEK293
Put plainly: FRET assay (EFS, FDSS) on HEK293 cells expressing human NaV1.3 channels. Format: cell-based. Conditions: FRET assay, HEK293 cells expressing human NaV1.3; read-out: IC50 against Nav1.3. In short, it runs like this:
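Membrane potential in HEK293 cells stably expressing human NaV1.3, read by FRET (CC2-DMPE 10 µM / DiSBAC2(3) 15 µM with 0.555 mM VABSC-1) after electrical field stimulation, in HEPES-buffered saline pH 7.4. Compounds added after dye loading at room temperature. IC50 from normalized 440 nm fluorescence ratios.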

SMILES strings stand for the structures.

T2 sequence (Q9NY46 whole entry): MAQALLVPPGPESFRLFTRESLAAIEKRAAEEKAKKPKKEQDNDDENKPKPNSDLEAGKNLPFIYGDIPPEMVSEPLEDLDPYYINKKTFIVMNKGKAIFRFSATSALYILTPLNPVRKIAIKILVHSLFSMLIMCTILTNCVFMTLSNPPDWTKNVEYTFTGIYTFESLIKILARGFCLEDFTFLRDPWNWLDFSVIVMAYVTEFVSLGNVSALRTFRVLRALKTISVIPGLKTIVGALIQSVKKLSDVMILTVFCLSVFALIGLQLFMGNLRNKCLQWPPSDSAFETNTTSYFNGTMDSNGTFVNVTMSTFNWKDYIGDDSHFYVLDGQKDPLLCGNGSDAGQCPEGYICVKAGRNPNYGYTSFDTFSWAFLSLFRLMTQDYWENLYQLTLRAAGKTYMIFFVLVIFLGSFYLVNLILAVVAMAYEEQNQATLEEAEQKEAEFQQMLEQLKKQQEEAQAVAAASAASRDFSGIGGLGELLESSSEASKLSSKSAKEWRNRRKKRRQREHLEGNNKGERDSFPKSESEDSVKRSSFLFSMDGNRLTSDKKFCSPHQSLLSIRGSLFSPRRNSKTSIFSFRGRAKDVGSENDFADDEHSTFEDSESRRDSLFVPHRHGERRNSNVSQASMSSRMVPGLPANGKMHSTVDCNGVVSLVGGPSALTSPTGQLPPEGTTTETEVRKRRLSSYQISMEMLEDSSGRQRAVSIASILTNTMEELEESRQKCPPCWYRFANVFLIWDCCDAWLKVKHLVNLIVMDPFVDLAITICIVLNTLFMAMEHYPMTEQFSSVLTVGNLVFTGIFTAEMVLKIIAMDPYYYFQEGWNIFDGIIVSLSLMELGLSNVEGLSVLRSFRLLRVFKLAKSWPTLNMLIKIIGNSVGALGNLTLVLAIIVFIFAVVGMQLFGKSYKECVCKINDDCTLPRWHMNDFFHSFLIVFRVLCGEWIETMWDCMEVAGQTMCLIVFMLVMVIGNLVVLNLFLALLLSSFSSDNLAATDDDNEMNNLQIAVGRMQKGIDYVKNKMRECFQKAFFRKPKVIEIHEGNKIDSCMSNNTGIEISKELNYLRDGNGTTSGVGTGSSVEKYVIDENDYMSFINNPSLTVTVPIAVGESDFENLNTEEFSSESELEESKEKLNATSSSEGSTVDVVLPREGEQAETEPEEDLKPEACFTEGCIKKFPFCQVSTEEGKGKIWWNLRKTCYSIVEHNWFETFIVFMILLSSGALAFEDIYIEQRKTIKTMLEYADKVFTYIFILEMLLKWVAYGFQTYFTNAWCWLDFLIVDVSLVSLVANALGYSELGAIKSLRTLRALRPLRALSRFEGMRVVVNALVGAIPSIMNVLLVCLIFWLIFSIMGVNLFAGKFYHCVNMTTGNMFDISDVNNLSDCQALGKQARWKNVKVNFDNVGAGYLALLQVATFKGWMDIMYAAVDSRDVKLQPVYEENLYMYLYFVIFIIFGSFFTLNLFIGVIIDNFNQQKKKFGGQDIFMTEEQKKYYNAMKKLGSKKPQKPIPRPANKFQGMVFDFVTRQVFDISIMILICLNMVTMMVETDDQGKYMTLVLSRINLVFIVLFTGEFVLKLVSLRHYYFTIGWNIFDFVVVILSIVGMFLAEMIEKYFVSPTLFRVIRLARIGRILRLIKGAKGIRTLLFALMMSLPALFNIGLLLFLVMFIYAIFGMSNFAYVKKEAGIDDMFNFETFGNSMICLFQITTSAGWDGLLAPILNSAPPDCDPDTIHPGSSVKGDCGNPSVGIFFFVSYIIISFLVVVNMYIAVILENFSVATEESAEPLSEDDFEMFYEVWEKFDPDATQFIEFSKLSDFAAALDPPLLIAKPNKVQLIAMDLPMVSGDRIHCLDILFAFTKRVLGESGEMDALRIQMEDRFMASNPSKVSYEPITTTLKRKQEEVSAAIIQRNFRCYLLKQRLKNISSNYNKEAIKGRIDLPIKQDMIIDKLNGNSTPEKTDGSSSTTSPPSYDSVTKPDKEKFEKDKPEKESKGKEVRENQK
T1 sequence (Q15858 whole entry): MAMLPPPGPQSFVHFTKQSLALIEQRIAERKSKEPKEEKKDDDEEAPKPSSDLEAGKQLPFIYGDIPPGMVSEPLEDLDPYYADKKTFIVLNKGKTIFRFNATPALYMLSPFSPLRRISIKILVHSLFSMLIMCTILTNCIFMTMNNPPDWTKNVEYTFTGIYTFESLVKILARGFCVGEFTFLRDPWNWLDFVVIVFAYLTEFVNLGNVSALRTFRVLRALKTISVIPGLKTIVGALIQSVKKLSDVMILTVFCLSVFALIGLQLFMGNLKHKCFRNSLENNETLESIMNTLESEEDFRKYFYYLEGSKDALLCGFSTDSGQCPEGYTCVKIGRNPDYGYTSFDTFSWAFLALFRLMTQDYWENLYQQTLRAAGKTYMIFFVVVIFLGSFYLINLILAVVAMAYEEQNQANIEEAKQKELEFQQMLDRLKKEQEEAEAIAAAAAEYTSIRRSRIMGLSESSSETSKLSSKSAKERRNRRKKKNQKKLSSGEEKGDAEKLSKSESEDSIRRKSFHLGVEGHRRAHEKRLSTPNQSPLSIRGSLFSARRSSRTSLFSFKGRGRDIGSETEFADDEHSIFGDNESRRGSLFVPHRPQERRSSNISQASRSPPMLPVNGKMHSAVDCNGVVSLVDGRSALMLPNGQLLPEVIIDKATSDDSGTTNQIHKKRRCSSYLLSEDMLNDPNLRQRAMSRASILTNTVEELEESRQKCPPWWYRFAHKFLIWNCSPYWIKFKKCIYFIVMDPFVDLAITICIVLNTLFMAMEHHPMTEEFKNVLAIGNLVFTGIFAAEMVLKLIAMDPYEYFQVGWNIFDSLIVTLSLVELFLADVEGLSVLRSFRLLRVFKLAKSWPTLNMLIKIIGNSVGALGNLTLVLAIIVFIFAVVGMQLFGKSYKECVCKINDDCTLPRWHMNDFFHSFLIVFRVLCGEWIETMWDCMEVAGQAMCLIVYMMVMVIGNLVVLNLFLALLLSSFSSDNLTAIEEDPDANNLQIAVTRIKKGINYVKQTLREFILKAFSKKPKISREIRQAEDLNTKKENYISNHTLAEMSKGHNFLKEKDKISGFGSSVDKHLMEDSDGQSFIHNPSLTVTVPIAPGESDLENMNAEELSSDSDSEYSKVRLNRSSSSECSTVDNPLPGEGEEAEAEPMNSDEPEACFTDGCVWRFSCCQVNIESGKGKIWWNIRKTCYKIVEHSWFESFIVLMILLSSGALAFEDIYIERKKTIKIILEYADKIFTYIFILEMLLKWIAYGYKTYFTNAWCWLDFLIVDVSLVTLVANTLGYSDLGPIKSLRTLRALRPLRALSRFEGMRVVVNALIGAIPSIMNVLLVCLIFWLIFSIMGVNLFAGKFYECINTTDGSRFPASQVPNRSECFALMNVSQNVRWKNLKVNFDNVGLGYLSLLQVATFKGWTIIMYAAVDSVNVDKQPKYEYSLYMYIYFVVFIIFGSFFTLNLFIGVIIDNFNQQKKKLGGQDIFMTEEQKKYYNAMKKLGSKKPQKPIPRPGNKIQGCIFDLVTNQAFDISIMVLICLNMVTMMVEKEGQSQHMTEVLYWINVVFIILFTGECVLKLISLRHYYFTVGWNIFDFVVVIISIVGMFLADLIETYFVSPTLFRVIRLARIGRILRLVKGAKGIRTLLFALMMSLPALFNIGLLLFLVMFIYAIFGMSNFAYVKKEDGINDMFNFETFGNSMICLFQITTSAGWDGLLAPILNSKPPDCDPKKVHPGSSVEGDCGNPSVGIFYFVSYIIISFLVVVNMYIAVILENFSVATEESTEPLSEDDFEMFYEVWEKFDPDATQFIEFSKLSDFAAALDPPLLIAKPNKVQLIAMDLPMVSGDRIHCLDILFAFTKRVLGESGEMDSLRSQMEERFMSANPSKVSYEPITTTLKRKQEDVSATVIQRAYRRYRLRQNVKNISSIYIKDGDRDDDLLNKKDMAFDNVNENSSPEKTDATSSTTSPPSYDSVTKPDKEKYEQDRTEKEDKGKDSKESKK

The IC50 is the point on the concentration scale where inhibition reaches its midpoint. For `CC(C)COc1cc(N2CCN(C(=O)COc3ccc(F)c4cccnc34)CC2)ncn1` [Example 129, 2-((5-fluoroquinolin-8-yl)oxy)-1-(4-(6-isobutoxypyrimidin-4-yl)piperazin-1-yl)ethanone], the IC50 at human Nav1.7 and on human NaV1.3 was less than 3 µM in each case.

With `CC(C)COc1cc(N2CCN(C(=O)c3csc(-c4ccccc4)n3)CC2)ncn1` [Example 213, (4-(6-isobutoxypyrimidin-4-yl)piperazin-1-yl)(2-phenylthiazol-4-yl)methanone], the IC50 at human Nav1.7 and on human NaV1.3 was less than 3 µM in each case.

Consider `CCn1nc(C(=O)N2CCN(c3cc(OCC(F)(F)F)ncn3)CC2)cc1C(F)(F)F` [Example 229, (1-ethyl-5-(trifluoromethyl)-1H-pyrazol-3-yl)(4-(6-(2,2,2-trifluoroethoxy)pyrimidin-4-yl)piperazin-1-yl)methanone], for which the IC50 on human Nav1.7 and at human NaV1.3 was less than 3 µM each time.

For `CC(C)COc1cc(N2CCN(C(=O)c3cccc(OC(F)(F)F)c3)CC2)ncn1` [Example 15, (4-(6-isobutoxypyrimidin-4-yl)piperazin-1-yl)(3-(trifluoromethoxy)phenyl)methanone], the IC50 on human Nav1.7 and on human NaV1.3 was less than 3 µM throughout. For `CC(C)COc1cc(N2CCN(C(=O)c3cc(-c4ccccc4)on3)CC2)ncn1` [Example 90], the IC50 on human Nav1.7 and on human NaV1.3 was less than 3 µM each time. For the compound `CC(C)COc1cc(N2CCN(C(=O)c3cc4ccccc4s3)CC2)ncn1` [Example 86], the IC50 on human Nav1.7 and at human NaV1.3 was less than 3 µM in each case.

`O=C(c1csc(-c2ccccc2)n1)N1CCN(c2cc(OCC(F)(F)F)ncn2)CC1` [Example 166, (2-phenylthiazol-4-yl)(4-(6-(2,2,2-trifluoroethoxy)pyrimidin-4-yl)piperazin-1-yl)methanone]: the IC50 at human Nav1.7 is less than 3 µM. In the case of `O=C(c1csc(-c2ccccn2)n1)N1CCN(c2cc(OCC(F)(F)F)ncn2)CC1` [Example 244, (2-(pyridin-2-yl)thiazol-4-yl)(4-(6-(2,2,2-trifluoroethoxy)pyrimidin-4-yl)piperazin-1-yl)methanone], the IC50 on human Nav1.7 and on human NaV1.3 was less than 3 µM each time. Turning to `O=C(CCOc1ccc(F)cc1)N1CCN(c2cc(OCC(F)(F)F)ncn2)CC1` [Example 139, 3-(4-fluorophenoxy)-1-(4-(6-(2,2,2-trifluoroethoxy)pyrimidin-4-yl)piperazin-1-yl)propan-1-one], the IC50 at human Nav1.7 and on human NaV1.3 was less than 3 µM in each case.

For the compound `Cc1cccc(OCCC(=O)N2CCN(c3cc(OCC(C)C)ncn3)CC2)c1` [Example 132, 1-(4-(6-isobutoxypyrimidin-4-yl)piperazin-1-yl)-3-(m-tolyloxy)propan-1-one], the IC50 on human Nav1.7 and at human NaV1.3 was less than 3 µM each time. Take `COc1ccccc1-c1cc(C(=O)N2CCN(c3cc(OCC(C)C)ncn3)CC2)[nH]n1` [Example 175]: the half-inhibitory concentration (IC50) at human Nav1.7 was less than 3 µM. Same read-out and setting: as for `CC(C)COc1cc(N2CCN(C(=O)c3ccc(C(F)(F)F)cc3O)CC2)ncn1` [Example 42, (2-hydroxy-4-(trifluoromethyl)phenyl)(4-(6-isobutoxypyrimidin-4-yl)piperazin-1-yl)methanone], the figure is less than 3 µM.

With `CC(C)COc1cc(N2CCN(C(=O)COc3ccc4ccccc4n3)CC2)ncn1` [Example 160, 1-(4-(6-isobutoxypyrimidin-4-yl)piperazin-1-yl)-2-(quinolin-2-yloxy)ethanone], the IC50 at human Nav1.7 was less than 3 µM. Take `CC(C)COc1cc(N2CCN(C(=O)CCn3ccc4ccccc43)CC2)ncn1` [Example 59, 3-(1H-indol-1-yl)-1-(4-(6-isobutoxypyrimidin-4-yl)piperazin-1-yl)propan-1-one]: the IC50 at human Nav1.7 and on human NaV1.3 was less than 3 µM each time. Consider `Cc1c(C(=O)N2CCN(c3cc(OCC(C)C)ncn3)CC2)cnn1-c1ccc(F)cc1` [Example 169, (1-(4-fluorophenyl)-5-methyl-1H-pyrazol-4-yl)(4-(6-isobutoxypyrimidin-4-yl)piperazin-1-yl)methanone], for which the IC50 at human Nav1.7 and on human NaV1.3 was less than 3 µM in each case. As for `CC(C)COc1cc(N2CCN(C(=O)Cn3nc4ccccc4n3)CC2)ncn1` [Example 105, 2-(2H-benzo[d][1,2,3]triazol-2-yl)-1-(4-(6-isobutoxypyrimidin-4-yl)piperazin-1-yl)ethanone], the IC50 on human Nav1.7 and on human NaV1.3 was less than 3 µM throughout. Regarding `Cc1ccc(C(=O)N2CCN(c3cc(OCC(F)(F)F)ncn3)CC2)cc1F` [Example 8, 3-(fluoro-4-methylphenyl)(4-(6-(2,2,2-trifluoroethoxy)pyrimidin-4-yl)piperazin-1-yl)methanone], the IC50 on human Nav1.7 was less than 3 µM. The same measure, in the same setting: as for `CC(C)COc1cc(N2CCN(C(=O)CNC(=O)c3cccc4[nH]ccc34)CC2)ncn1` [Example 75, N-(2-(4-(6-isobutoxypyrimidin-4-yl)piperazin-1-yl)-2-oxoethyl)-1H-indole-4-carboxamide], the figure is less than 3 µM; as for `CC(C)COc1cc(N2CCN(C(=O)c3cc4ccccc4n3C)CC2)ncn1` [Example 43, (4-(6-isobutoxypyrimidin-4-yl)piperazin-1-yl)(1-methyl-1H-indol-2-yl)methanone], less than 3 µM. Same read-out and setting: as for `CC(C)COc1cc(N2CCN(C(=O)COc3cccc4[nH]ccc34)CC2)ncn1` [Example 137, 2-((1H-indol-4-yl)oxy)-1-(4-(6-isobutoxypyrimidin-4-yl)piperazin-1-yl)ethanone], the figure is less than 3 µM. `CC(C)COc1cc(N2CCN(C(=O)Cc3c[nH]c4ccc(F)cc34)CC2)ncn1` [Example 60, 2-(5-fluoro-1H-indol-3-yl)-1-(4-(6-isobutoxypyrimidin-4-yl)piperazin-1-yl)ethanone]: the IC50 on human Nav1.7 was less than 3 µM. The same measure, in the same setting: for `CC(C)COc1cc(N2CCN(C(=O)[C@@H](N)c3ccccc3)CC2)ncn1` [Example 27, (S)-2-amino-1-(4-(6-isobutoxypyrimidin-4-yl)piperazin-1-yl)-2-phenylethanone] the value was less than 3 µM; for `Cc1onc(-c2ccccc2)c1C(=O)N1CCN(c2cc(OCC(F)(F)F)ncn2)CC1` [Example 245, (5-methyl-3-phenylisoxazol-4-yl)(4-(6-(2,2,2-trifluoroethoxy)pyrimidin-4-yl)piperazin-1-yl)methanone], less than 3 µM; for `O=C(COc1cccc2cccnc12)N1CCN(c2cc(OCC(F)(F)F)ncn2)CC1` [Example 156, 2-(quinolin-8-yloxy)-1-(4-(6-(2,2,2-trifluoroethoxy)pyrimidin-4-yl)piperazin-1-yl)ethanone], less than 3 µM.

Regarding `CC(C)COc1cc(N2CCN(C(=O)c3ccc4cccc(O)c4n3)CC2)ncn1` [Example 32, (8-hydroxyquinolin-2-yl)(4-(6-isobutoxypyrimidin-4-yl)piperazin-1-yl)methanone], the IC50 at human Nav1.7 was less than 3 µM.

For `CC(C)COc1cc(N2CCN(C(=O)[C@@H](NC(=O)OC(C)(C)C)c3ccccc3)CC2)ncn1` [Example 10, (S)-tert-butyl (2-(4-(6-isobutoxypyrimidin-4-yl)piperazin-1-yl)-2-oxo-1-phenylethyl)carbamate], the IC50 at human Nav1.7 is less than 3 µM. `O=C(Cc1c[nH]c2ccc(F)cc12)N1CCN(c2cc(OCC(F)(F)F)ncn2)CC1` [Example 110, 2-(5-fluoro-1H-indol-3-yl)-1-(4-(6-(2,2,2-trifluoroethoxy)pyrimidin-4-yl)piperazin-1-yl)ethanone]: the IC50 on human Nav1.7 is less than 3 µM. Take `CC(C)COc1cc(N2CCN(C(=O)CNC3CCCCC3)CC2)ncn1` [Example 100, 2-(cyclohexylamino)-1-(4-(6-isobutoxypyrimidin-4-yl)piperazin-1-yl)ethanone]: the IC50 on human Nav1.7 is less than 3 µM. `CC(C)COc1cc(N2CCN(C(=O)CNC(=O)c3nn(C)c4ccccc34)CC2)ncn1` [Example 76, N-(2-(4-(6-isobutoxypyrimidin-4-yl)piperazin-1-yl)-2-oxoethyl)-1-methyl-1H-indazole-3-carboxamide]: the IC50 on human Nav1.7 was less than 3 µM. Still for that read-out and setting: for `O=C(c1cncn1-c1ccccc1C(F)(F)F)N1CCN(c2cc(OCC(F)(F)F)ncn2)CC1` [Example 243, (4-(6-(2,2,2-trifluoroethoxy)pyrimidin-4-yl)piperazin-1-yl)(1-(2-(trifluoromethyl)phenyl)-1H-imidazol-5-yl)methanone] the value was less than 3 µM.

For the origin of these results see US8999974B2, “Acyl piperazine derivatives as TTX-S blockers” (Raqualia Pharma Inc., priority 2010, dated 2015).
